Experimental data taken from patent US20090123907A1 (priority 2004, published 2009).
Values joined by “and” are separate entries in the source; they are usually repeats but may differ in a detail not shown here. Equal values may be shown once.

Columns and labels:
[1] = tested on: clotting enzyme activation (D-dimers); experiment: D-dimer test (DimerTest latex agglutination) for cryptic activation in citrated plasma; type: biochemical
Method: The samples were divided into four 1 ml aliquots. To three of the sample aliquots, sufficient concentrated citrate solution was added to achieve 1%, 1.5% or 2% weight/volume citrate, respectively, while the fourth aliquot acted as the control.
As a “worst case” scenario to detect activation, the aliquots were incubated at 21° C. for a maximum of ten days. Each aliquot was assayed daily for the presence of D-dimers using the DimerTest latex agglutination assay (American Diagnostica, Stamford, Conn.). The results are shown in Table 1 where the number of days to observable D-dimers is listed for each aliquot. […] At day six of incubation, 41.2% (14) of the control aliquots were positive for the presence of D-dimers. By day seven, 100% (34) of the normal citrate (0.4%) aliquots were positive for D-dimers.

clot formation = experiment: Clotting times (PT, PTT) of anticoagulated whole blood; type: biochemical
Method: (§1) In this experiment whole blood (an aliquot of which clotted within 10 minutes without anticoagulant) was modified by adding a number of different anticoagulant compositions. Sodium citrate was used as an anticoagulant at 0.65%, 0.75% and 0.9% by weight. These are all higher citrate levels than the usual 0.4% by weight. Amino acid citrates (lysine or arginine) were used at 0.65%, 0.75% and 0.9% by weight based on the weight of the citric acid. The amino acid counterion was used in sufficient quantity to adjust the pH as explained above.

red blood cells = experiment: Red blood cell integrity during storage at 4° C.; type: cell-based; design: MCV Day 20 / MCV Day 33: unit not given here; details: for RBC Day 1: whole blood; for MCV Day 20 / MCV Day 33: whole blood stored at 4° C.
Method: as §1
To judge red cell condition the blood was counted and various other measurements were taken initially and after 20 and 33 days of storage at 4° C. Apparent initial/differences in RBC counts are due to dilution caused by adding extra anticoagulant. Mean cell volume (MCV) is a red cell index that is a useful measure of red cell health. […] It is believed that a citrate level of at least about 1.0% by weight (i.e., more than two times the usual amount) is necessary to ensure against all activation of plasma proteins. […] On the other hand, amino acid citrates, which are very effective anticoagulants, are also effective at preventing red cell damage.

| SMILES | number of days to observable D-dimers ([1]; 0.4% Citrate, plasma at 21° C., maximum ten days) | aliquots positive for the presence of D-dimers ([1]; 0.4% citrate control aliquots, day six of incubation) [%] | aliquots positive for D-dimers ([1]; 0.4% citrate, by day seven) [%] | aliquots that showed D-dimers by day ten ([1]; additional citrate (1%, 1.5%, 2%)) | PT (4 hrs at RT) (clot formation; anticoagulant 0.65 wgt %) [s] | PTT (4 hrs at RT) (clot formation; anticoagulant 0.65 wgt %) [s] | PT (4 hrs at RT) (clot formation; anticoagulant 0.75 wgt %) [s] | PTT (4 hrs at RT) (clot formation; anticoagulant 0.75 wgt %) [s] | PT (4 hrs at RT) (clot formation; anticoagulant 0.90 wgt %) [s] | PTT (4 hrs at RT) (clot formation; anticoagulant 0.90 wgt %) [s] | RBC Day 1 (red blood cells; anticoagulant 0.65 wgt %) | MCV Day 20 (red blood cells; anticoagulant 0.65 wgt %) | MCV Day 33 (red blood cells; anticoagulant 0.65 wgt %) | RBC Day 1 (red blood cells; anticoagulant 0.75 wgt %) | MCV Day 20 (red blood cells; anticoagulant 0.75 wgt %) | MCV Day 33 (red blood cells; anticoagulant 0.75 wgt %) | RBC Day 1 (red blood cells; anticoagulant 0.90 wgt %) | MCV Day 20 (red blood cells; anticoagulant 0.90 wgt %) | MCV Day 33 (red blood cells; anticoagulant 0.90 wgt %) |
| --- | --- | --- | --- | --- | --- | --- | --- | --- | --- | --- | --- | --- | --- | --- | --- | --- | --- | --- | --- |
| O=C(O)CC(O)(CC(=O)O)C(=O)O [Citrate] | 6 days and 7 days and 5 days | 41.2 | 100 | None |  |  |  |  |  |  |  |  |  |  |  |  |  |  |  |
| N=C(N)NCCC[C@H](N)C(=O)O.O=C(O)CC(O)(CC(=O)O)C(=O)O [Arg Citrate, arginine citrate] |  |  |  |  | 15.8 | 36.8 | 20.2 | 39.9 | 55 | 56.8 | 5.77 10^6/μl | 93.1 | 93.5 | 6.45 10^6/μl | 92.6 | 93.6 | 6.77 10^6/μl | 91.5 | 92.4 |
